Data on one compound can be found in patent EP3016671B1, “ACTIVELY T[…] PROTEASE-RESISTANT PEPTIDES AS BBB SHUTTLES AND SHUTTLE-CARGO CONSTRUCTS” (Universitat de Barcelona, priority 2013, dated 2015).

Data set [1] deals with human endothelial cells derived from hematopoietic stem cells. As to the kind of experiment: Transport across the BBB, in vitro human cell assay (co-culture, transwell). The data set is classed as in vitro ADME. The settings on record: human cell model, 37 °C, Ringer-HEPES pH 7.4, 200 µM peptides, 25 nM Examples 22 and 23, 30 nM Example 24, 5 nM Example 25. Here is the method:
(§1) Due to the great interest to know whether the cargo-BBB shuttle conjugates would be transported across human brain endothelial cells, some of the most relevant cargoes for therapy and diagnosis were assayed in a novel human-based BBB cell model. In this case, the co-culture method used was described by Cecchelli et al. (Cecchelli et al. PloS One. 2014. vol9. pp. e99733) and consists in seeding bovine pericytes in the bottom of a 12-well plate and human endothelial cells derived from hematopoietic stem cells on a transwell filter.
(§2) The compound of interest was disolved or buffer-exhanged and diluted to the desired concentration.
(§3) Cetuximab and cetuximab conjugates were radiolabelled to be assayed in the cell model. Pierce^(R) iodination beads were used following the instructions provided by the manufacturer.
(§4) The apparent permeability was calculated using the same equation as for the bovine cell model.

Test in data set [2]: as above
The data set is classed as in vitro ADME. As to conditions: human cell model, 37 °C, Ringer-HEPES pH 7.4, 200 µM peptides, 25 nM Examples 22 and 23, 30 nM Example 24, 5 nM Example 25, read-out: Papp (x 10^6). How it is done:
as §1, §2, §3, §4

SMILES strings stand for the structures. Positions of bridges follow the written chain, without caps; N, C: chain ends. Non-standard residues stand in square brackets, D forms with d. Residues, ends and D or L forms follow the SMILES beside them. Dap = NC[C@H](N)C(=O)O

What is called Papp is the rate of passage across a membrane or cell layer, normalised by area and donor concentration. With `CC[C@H](C)[C@H](NC(=O)[C@H](CCC(=O)O)NC(=O)[C@@H](NC(=O)[C@H](CCC(N)=O)NC(=O)[C@H](CCCCN)NC(=O)[C@@H]1CC(=O)NC[C@H](N)C(=O)N[C@@H](CCCCN)C(=O)N[C@@H](C)C(=O)N2CCC[C@H]2C(=O)N[C@@H](CCC(=O)O)C(=O)N[C@@H]([C@@H](C)O)C(=O)N[C@@H](C)C(=O)N[C@@H](CC(C)C)C(=O)N1)[C@@H](C)CC)C(=O)N[C@@H](CCCCN)C(=O)N[C@@H](CCCCN)C(=O)N[C@@H](Cc1ccccc1)C(=O)N[C@@H](CCCCN)C(N)=O` [Example 27, H-Dap-Lys-Ala-Pro-Glu-Thr-Ala-Leu-Asp-Lys-Gln-Ile-Glu-Ile-Lys-Lys-Phe-Lys-NH2] (H-[Dap]KAPETALDKQIEIKKFK-NH2; lactam 1-9), in data set [1], the “Transport (%) (2h)” value was 3.1±0.2%. Further, the Papp at 2 h in data set [2] was 1.9 ± 0.1 ×10⁻⁶ cm/s.
